# Laboratory results: US9302988B2, “Fluoromethyl-substituted pyrrole carboxamides” (GRÜNENTHAL GMBH, priority 2012, dated 2016)
# Target: T1, Human CaV2.2 channels (Homo sapiens, UniProt Q00975)
# T1 construct: expressed in transfected cells
# Assay: Fluorescent assay for CaV2.2 channels using potassium depolarization to induce channel opening (FLIPR, Fluo-4)
# Assay type: cell-based
# Settings: 3 μM test compound, 30 mM KCl, HEK293 cells stably expressing human CaV2.2; read-out: %-Inhib (CaV2.2) @3 μM @30 mM KCl
# How it was run: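 HEK293 cells stably co-expressing CaV2.2 with α2δ and β subunits plus Kir2.3 were Fluo-4 loaded, then preincubated 15 min at 25 °C with compound in 30 mM KCl buffer, pH 7.4. Depolarization was by adding buffer containing 210 mM KCl. Inhibition was taken from baseline-normalized peak fluorescence amplitude (ex 480/em 535 nm).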
# T1 sequence (Q00975 whole entry): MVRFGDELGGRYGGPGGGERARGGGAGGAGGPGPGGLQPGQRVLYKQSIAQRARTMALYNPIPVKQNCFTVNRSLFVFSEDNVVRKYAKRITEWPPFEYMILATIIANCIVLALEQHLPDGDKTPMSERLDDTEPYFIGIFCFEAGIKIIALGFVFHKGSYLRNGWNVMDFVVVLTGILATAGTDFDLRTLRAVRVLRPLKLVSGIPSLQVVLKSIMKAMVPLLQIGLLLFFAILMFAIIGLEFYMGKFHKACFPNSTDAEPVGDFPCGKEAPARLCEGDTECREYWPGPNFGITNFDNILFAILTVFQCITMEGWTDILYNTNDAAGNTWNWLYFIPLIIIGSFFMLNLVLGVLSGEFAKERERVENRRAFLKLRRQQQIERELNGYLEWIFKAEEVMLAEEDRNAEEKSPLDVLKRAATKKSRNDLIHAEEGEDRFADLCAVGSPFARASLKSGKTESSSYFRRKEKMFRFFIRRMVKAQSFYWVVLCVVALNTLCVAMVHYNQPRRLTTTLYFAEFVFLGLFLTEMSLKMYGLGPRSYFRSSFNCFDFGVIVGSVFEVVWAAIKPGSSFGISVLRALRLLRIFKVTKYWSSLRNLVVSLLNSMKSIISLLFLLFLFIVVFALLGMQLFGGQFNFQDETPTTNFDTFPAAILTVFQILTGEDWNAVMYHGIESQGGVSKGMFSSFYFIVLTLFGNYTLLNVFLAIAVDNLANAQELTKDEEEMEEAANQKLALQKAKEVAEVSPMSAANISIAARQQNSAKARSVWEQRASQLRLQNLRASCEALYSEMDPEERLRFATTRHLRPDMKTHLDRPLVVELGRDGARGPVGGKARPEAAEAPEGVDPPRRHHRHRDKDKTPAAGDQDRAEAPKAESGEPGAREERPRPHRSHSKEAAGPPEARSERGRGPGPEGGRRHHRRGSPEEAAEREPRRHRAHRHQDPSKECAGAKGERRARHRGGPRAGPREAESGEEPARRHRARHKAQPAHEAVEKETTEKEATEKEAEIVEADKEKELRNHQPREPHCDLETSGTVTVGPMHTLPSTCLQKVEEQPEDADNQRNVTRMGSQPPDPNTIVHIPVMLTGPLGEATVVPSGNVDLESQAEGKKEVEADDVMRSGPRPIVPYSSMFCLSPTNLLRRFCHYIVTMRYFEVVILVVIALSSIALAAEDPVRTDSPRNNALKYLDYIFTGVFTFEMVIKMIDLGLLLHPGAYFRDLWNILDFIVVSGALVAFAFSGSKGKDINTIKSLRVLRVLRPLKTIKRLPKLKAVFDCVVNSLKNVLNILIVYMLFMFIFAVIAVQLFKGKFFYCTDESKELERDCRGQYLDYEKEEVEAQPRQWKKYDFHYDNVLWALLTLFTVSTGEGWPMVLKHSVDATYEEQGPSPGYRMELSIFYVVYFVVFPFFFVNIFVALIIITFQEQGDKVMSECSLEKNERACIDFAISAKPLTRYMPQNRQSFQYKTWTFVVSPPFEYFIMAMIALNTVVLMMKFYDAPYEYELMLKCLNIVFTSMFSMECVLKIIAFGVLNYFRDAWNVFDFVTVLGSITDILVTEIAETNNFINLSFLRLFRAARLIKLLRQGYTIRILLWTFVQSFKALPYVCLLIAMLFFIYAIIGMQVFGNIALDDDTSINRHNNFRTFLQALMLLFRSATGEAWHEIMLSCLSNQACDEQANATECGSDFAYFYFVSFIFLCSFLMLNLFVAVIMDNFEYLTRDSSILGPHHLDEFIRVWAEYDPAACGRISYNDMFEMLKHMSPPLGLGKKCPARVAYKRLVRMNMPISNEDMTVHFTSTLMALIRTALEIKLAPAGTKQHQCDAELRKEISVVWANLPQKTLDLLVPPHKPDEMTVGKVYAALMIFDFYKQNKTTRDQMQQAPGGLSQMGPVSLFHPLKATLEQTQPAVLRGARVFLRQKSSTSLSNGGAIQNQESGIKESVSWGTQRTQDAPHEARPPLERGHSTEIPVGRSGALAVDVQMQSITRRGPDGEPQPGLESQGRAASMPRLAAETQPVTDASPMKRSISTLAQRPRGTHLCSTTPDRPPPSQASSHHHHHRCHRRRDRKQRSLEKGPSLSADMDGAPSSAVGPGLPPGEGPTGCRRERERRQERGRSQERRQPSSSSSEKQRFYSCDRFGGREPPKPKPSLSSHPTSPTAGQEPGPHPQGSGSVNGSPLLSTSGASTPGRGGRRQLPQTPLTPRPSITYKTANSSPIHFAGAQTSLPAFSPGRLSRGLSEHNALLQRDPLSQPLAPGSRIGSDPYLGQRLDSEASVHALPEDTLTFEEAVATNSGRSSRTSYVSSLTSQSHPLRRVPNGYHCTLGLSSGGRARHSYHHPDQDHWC
# T1 sequence (P54289 25-1103, further chain): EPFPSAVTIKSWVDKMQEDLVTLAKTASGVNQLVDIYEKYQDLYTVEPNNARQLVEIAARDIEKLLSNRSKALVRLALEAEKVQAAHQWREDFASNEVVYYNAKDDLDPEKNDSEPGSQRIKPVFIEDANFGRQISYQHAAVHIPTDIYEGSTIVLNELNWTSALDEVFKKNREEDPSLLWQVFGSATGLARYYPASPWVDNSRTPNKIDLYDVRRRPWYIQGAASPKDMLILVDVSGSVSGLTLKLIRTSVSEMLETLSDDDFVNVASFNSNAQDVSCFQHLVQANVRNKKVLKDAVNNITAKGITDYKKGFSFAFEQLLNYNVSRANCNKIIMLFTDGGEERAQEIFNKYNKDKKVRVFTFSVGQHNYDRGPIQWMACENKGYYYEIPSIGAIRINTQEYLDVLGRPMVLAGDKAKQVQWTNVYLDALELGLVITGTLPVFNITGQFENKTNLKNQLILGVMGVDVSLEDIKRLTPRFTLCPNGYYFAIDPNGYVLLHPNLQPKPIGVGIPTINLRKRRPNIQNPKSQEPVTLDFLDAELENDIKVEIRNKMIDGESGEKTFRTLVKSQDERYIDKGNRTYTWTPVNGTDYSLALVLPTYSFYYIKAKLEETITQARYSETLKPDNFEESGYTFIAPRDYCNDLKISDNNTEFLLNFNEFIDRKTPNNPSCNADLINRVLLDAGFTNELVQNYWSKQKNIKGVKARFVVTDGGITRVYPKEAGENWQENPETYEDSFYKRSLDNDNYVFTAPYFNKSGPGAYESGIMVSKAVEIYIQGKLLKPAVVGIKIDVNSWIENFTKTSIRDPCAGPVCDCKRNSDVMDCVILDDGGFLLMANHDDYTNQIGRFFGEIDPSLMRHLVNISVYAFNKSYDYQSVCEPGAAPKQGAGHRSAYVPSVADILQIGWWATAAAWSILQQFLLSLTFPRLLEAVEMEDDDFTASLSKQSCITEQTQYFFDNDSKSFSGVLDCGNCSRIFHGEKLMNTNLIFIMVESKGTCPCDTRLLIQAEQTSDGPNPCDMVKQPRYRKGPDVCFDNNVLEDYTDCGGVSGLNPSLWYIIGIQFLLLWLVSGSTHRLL
# T1 sequence (P54284 whole entry, further chain): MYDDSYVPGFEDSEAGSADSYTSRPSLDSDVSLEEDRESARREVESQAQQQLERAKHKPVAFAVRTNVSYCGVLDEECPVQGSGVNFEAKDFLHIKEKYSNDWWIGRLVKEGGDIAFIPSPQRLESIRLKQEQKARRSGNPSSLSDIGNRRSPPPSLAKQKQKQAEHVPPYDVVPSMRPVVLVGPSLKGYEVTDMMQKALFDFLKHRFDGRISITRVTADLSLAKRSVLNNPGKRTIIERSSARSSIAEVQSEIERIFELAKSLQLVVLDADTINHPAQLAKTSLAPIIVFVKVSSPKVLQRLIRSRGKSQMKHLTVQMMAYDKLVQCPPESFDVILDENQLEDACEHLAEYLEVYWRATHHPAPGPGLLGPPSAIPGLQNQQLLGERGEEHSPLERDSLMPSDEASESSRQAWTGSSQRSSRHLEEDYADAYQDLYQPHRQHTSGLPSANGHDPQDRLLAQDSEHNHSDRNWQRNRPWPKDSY
row,Compound,inhibition at 3 µM
1,"O=C(c1c(-c2ccc(Cl)cc2)cc(C(F)(F)F)n1Cc1ccccc1)N1CC(F)(F)C1 [SC-94, [1-Benzyl-3-(4-chlorophenyl)-5-(trifluoromethyl)-1H-pyrrol-2-yl]-(3,3-difluoro-azetidin-1-yl)-methanone]",75 to 95%
2,"Cc1c(-c2ccc(F)cc2)c(C(=O)N2CC(F)(F)C2)n(Cc2ccccc2)c1C(F)(F)F [SC-95, [1-Benzyl-3-(4-fluorophenyl)-4-methyl-5-(trifluoromethyl)-1H-pyrrol-2-yl]-(3,3-difluoro-azetidin-1-yl)-methanone]",75 to 95%
3,"Cc1c(-c2ccc(C(F)(F)F)cc2)c(C(=O)N2CC(F)(F)C2)n(Cc2ccccc2)c1C(F)(F)F [SC-96, [1-Benzyl-4-methyl-5-(trifluoromethyl)-3-[4-(trifluoromethyl)-phenyl]-1H-pyrrol-2-yl]-(3,3-difluoro-azetidin-1-yl)-methanone]",40 to 75%
4,"Cc1c(-c2ccc(OC(F)(F)F)cc2)c(C(=O)N2CC(F)(F)C2)n(Cc2ccccc2)c1C(F)(F)F [SC-97, [1-Benzyl-4-methyl-5-(trifluoromethyl)-3-[4-(trifluoromethyloxy)-phenyl]-1H-pyrrol-2-yl]-(3,3-difluoro-azetidin-1-yl)-methanone]",40 to 75%
5,"Cc1c(-c2ccc(Cl)c(F)c2)c(C(=O)N2CC(F)(F)C2)n(Cc2ccccc2)c1C(F)(F)F [SC-98, [1-Benzyl-3-(4-chloro-3-fluoro-phenyl)-4-methyl-5-(trifluoromethyl)-1H-pyrrol-2-yl]-(3,3-difluoro-azetidin-1-yl)-methanone]",40 to 75%
6,"Cc1c(-c2ccc(F)c(Cl)c2)c(C(=O)N2CC(F)(F)C2)n(Cc2ccccc2)c1C(F)(F)F [SC-99, [1-Benzyl-3-(3-chloro-4-fluoro-phenyl)-4-methyl-5-(trifluoromethyl)-1H-pyrrol-2-yl]-(3,3-difluoro-azetidin-1-yl)-methanone]",40 to 75%
7,"Cc1c(-c2ccc(Cl)cc2F)c(C(=O)N2CC(F)(F)C2)n(Cc2ccccc2)c1C(F)(F)F [SC-100, [1-Benzyl-3-(4-chloro-2-fluoro-phenyl)-4-methyl-5-(trifluoromethyl)-1H-pyrrol-2-yl]-(3,3-difluoro-azetidin-1-yl)-methanone]",75 to 95%
8,"Cc1c(-c2ccc(F)cc2)c(C(=O)N2CCOCC2)n(Cc2ccccc2)c1C(F)(F)F [SC-101, [1-Benzyl-3-(4-fluorophenyl)-4-methyl-5-(trifluoromethyl)-1H-pyrrol-2-yl]-morpholin-4-yl-methanone]",> 95%
9,"Cc1c(-c2ccc(C(F)(F)F)cc2)c(C(=O)N2CCOCC2)n(Cc2ccccc2)c1C(F)(F)F [SC-102, [1-Benzyl-4-methyl-5-(trifluoromethyl)-3-[4-(trifluoromethyl)-phenyl]-1H-pyrrol-2-yl]-morpholin-4-yl-methanone]",75 to 95%
10,"Cc1c(-c2ccc(Cl)c(F)c2)c(C(=O)N2CCOCC2)n(Cc2ccccc2)c1C(F)(F)F [SC-103, [1-Benzyl-3-(4-chloro-3-fluoro-phenyl)-4-methyl-5-(trifluoromethyl)-1H-pyrrol-2-yl]-morpholin-4-yl-methanone]",75 to 95%
11,"Cc1c(-c2ccc(F)c(Cl)c2)c(C(=O)N2CCOCC2)n(Cc2ccccc2)c1C(F)(F)F [SC-104, [1-Benzyl-3-(3-chloro-4-fluoro-phenyl)-4-methyl-5-(trifluoromethyl)-1H-pyrrol-2-yl]-morpholin-4-yl-methanone]",75 to 95%
12,"Cc1c(-c2ccc(OC(F)(F)F)cc2)c(C(=O)N2CCOCC2)n(Cc2ccccc2)c1C(F)(F)F [SC-105, [1-Benzyl-4-methyl-5-(trifluoromethyl)-3-[4-(trifluoromethyloxy)-phenyl]-1H-pyrrol-2-yl]-morpholin-4-yl-methanone]",75 to 95%
13,"Cc1c(-c2ccc(Cl)cc2)c(C(=O)N(C)CC(C)(C)CO)n(Cc2ccccc2)c1C(F)(F)F [SC-106, 1-Benzyl-3-(4-chlorophenyl)-N-(3-hydroxy-2,2-dimethyl-propyl)-N,4-dimethyl-5-(trifluoromethyl)-1H-pyrrole-2-carboxylic acid amide]",> 95%
14,"Cc1c(-c2ccc(Cl)cc2F)c(C(=O)N(C)CC(C)(C)CO)n(Cc2ccccc2)c1C(F)(F)F [SC-107, 1-Benzyl-3-(4-chloro-2-fluoro-phenyl)-N-(3-hydroxy-2,2-dimethyl-propyl)-N,4-dimethyl-5-(trifluoromethyl)-1H-pyrrole-2-carboxylic acid amide]",> 95%
15,"Cc1c(-c2ccc(Cl)cc2)c(C(=O)N(C)CCC(C)(C)O)n(Cc2ccccc2)c1C(F)(F)F [SC-113, 1-Benzyl-3-(4-chlorophenyl)-N-(3-hydroxy-3-methyl-butyl)-N,4-dimethyl-5-(trifluoromethyl)-1H-pyrrole-2-carboxylic acid amide]",> 95%
16,"Cc1c(-c2ccc(Cl)cc2)c(C(=O)N(C)CC2(CO)CC2)n(Cc2ccccc2)c1C(F)(F)F [SC-115, 1-Benzyl-3-(4-chlorophenyl)-N-[[1-(hydroxymethyl)-cyclopropyl]-methyl]-N,4-dimethyl-5-(trifluoromethyl)-1H-pyrrole-2-carboxylic acid amide]",> 95%
17,"Cc1c(-c2ccc(Cl)cc2)c(C(=O)N(C)CC2(CO)CCC2)n(Cc2ccccc2)c1C(F)(F)F [SC-116, 1-Benzyl-3-(4-chlorophenyl)-N-[[1-(hydroxymethyl)-cyclobutyl]-methyl]-N,4-dimethyl-5-(trifluoromethyl)-1H-pyrrole-2-carboxylic acid amide]",> 95%
18,"Cc1c(-c2ccc(Cl)cc2)c(C(=O)N2CCC(CO)C2)n(Cc2ccccc2)c1C(F)(F)F (stereo not drawn) [SC-117, [1-Benzyl-3-(4-chlorophenyl)-4-methyl-5-(trifluoromethyl)-1H-pyrrol-2-yl]-[3-(hydroxymethyl)-pyrrolidin-1-yl]-methanone]",75 to 95%
19,"Cc1c(-c2ccc(Cl)cc2)c(C(=O)N(C)CC(C)(C)CN2CCOCC2)n(Cc2ccccc2)c1C(F)(F)F [SC-118, 1-Benzyl-3-(4-chlorophenyl)-N-(2,2-dimethyl-3-morpholin-4-yl-propyl)-N,4-dimethyl-5-(trifluoromethyl)-1H-pyrrole-2-carboxylic acid amide]",> 95%
20,"CCc1c(-c2ccc(Cl)cc2)c(C(=O)N(C)CC(C)(C)C)n(Cc2ccccc2)c1C(F)(F)F [SC-119, 1-Benzyl-3-(4-chlorophenyl)-N-(2,2-dimethyl-propyl)-4-ethyl-N-methyl-5-(trifluoromethyl)-1H-pyrrole-2-carboxylic acid amide]",75 to 95%
21,"CN(CC(C)(C)C)C(=O)c1c(-c2ccc(Cl)cc2)c(C2CC2)c(C(F)(F)F)n1Cc1ccccc1 [SC-120, 1-Benzyl-3-(4-chlorophenyl)-4-cyclopropyl-N-(2,2-dimethyl-propyl)-N-methyl-5-(trifluoromethyl)-1H-pyrrole-2-carboxylic acid amide]",75 to 95%
22,"Cc1c(-c2ccc(Cl)cc2)c(C(=O)N(C)CC2CCOC2)n(Cc2ccccc2)c1C(F)(F)F (stereo not drawn) [SC-121, 1-Benzyl-3-(4-chlorophenyl)-N,4-dimethyl-N-(tetrahydro-furan-3-yl-methyl)-5-(trifluoromethyl)-1H-pyrrole-2-carboxylic acid amide]",> 95%
23,"Cc1c(-c2ccc(Cl)cc2)c(C(=O)N(C)C(C)(C)CCO)n(Cc2ccccc2)c1C(F)(F)F [SC-122, 1-Benzyl-3-(4-chlorophenyl)-N-(3-hydroxy-1,1-dimethyl-propyl)-N,4-dimethyl-5-(trifluoromethyl)-1H-pyrrole-2-carboxylic acid amide]",> 95%
24,"Cc1c(-c2ccc(Cl)cc2)c(C(=O)N2CCC(S(C)(=O)=O)C2)n(Cc2ccccc2)c1C(F)(F)F (stereo not drawn) [SC-123, [1-Benzyl-3-(4-chlorophenyl)-4-methyl-5-(trifluoromethyl)-1H-pyrrol-2-yl]-(3-methylsulfonyl-pyrrolidin-1-yl)-methanone]",> 95%
25,"Cc1c(-c2ccc(Cl)cc2)c(C(=O)N(C)C(CO)C(C)(C)C)n(Cc2ccccc2)c1C(F)(F)F (stereo not drawn) [SC-124, 1-Benzyl-3-(4-chlorophenyl)-N-[1-(hydroxymethyl)-2,2-dimethyl-propyl]-N,4-dimethyl-5-(trifluoromethyl)-1H-pyrrole-2-carboxylic acid amide]",> 95%
26,"Cc1c(-c2ccc(Cl)cc2)c(C(=O)N(C)CC(C)(CO)CO)n(Cc2ccccc2)c1C(F)(F)F [SC-125, 1-Benzyl-3-(4-chlorophenyl)-N-[3-hydroxy-2-(hydroxymethyl)-2-methyl-propyl]-N,4-dimethyl-5-(trifluoromethyl)-1H-pyrrole-2-carboxylic acid amide]",> 95%
27,"Cc1c(-c2ccc(Cl)cc2)c(C(=O)N(C)C(C)(C)CO)n(Cc2ccccc2)c1C(F)(F)F [SC-126, 1-Benzyl-3-(4-chlorophenyl)-N-(2-hydroxy-1,1-dimethyl-ethyl)-N,4-dimethyl-5-(trifluoromethyl)-1H-pyrrole-2-carboxylic acid amide]",> 95%
28,"Cc1c(-c2ccc(Cl)cc2)c(C(=O)N(C)CCCS(C)(=O)=O)n(Cc2ccccc2)c1C(F)(F)F [SC-127, 1-Benzyl-3-(4-chlorophenyl)-N,4-dimethyl-N-(3-methylsulfonyl-propyl)-5-(trifluoromethyl)-1H-pyrrole-2-carboxylic acid amide]",> 95%
29,"CCN(CCS(C)(=O)=O)C(=O)c1c(-c2ccc(Cl)cc2)c(C)c(C(F)(F)F)n1Cc1ccccc1 [SC-128, 1-Benzyl-3-(4-chlorophenyl)-N-ethyl-4-methyl-N-(2-methylsulfonyl-ethyl)-5-(trifluoromethyl)-1H-pyrrole-2-carboxylic acid amide]",> 95%
30,"Cc1c(-c2ccc(Cl)cc2)c(C(=O)NCCS(C)(=O)=O)n(Cc2ccccc2)c1C(F)(F)F [SC-129, 1-Benzyl-3-(4-chlorophenyl)-4-methyl-N-(2-methylsulfonyl-ethyl)-5-(trifluoromethyl)-1H-pyrrole-2-carboxylic acid amide]",75 to 95%
